Data from article PMC10518010, “The leaderless communication peptide (LCP) class of quorum-sensing peptides is broadly distributed among Firmicutes” (Nature Communications, 2023).
Blank lines part the entries; values can stand above or below the compound they belong to. Where a SMILES comes first, the peptide text is derived from it. The star is where a group is joined. FITC = O=C1OC2(c3ccc(O)cc3Oc3cc(O)ccc32)c2ccc(NC(=S)*)cc21

Key:
[1] = tested on: WT S. salivarius; settings: 30 min, fluorescence and microscopy
Description: Cells were harvested by centrifugation, and washed three times with sterile PBS. Cells were fixed on the coverslip using 1% glutaraldehyde and 3% formaldehyde. The images were taken using a Nikon Eclipse TiN-STORM super resolution microscope equipped with iXon3 897 EM-CCD camera.

[2] = tested on: secreted cysteine protease SpeB; settings: S. pyogenes; cited from earlier work
Description: (§1) Recently, we discovered a new class of leaderless communication peptide (LCP) in human pathogen Streptococcus pyogenes that controls bacterial virulence (Fig. 1a)[10]. Contrary to characterized bacterial peptide signals, the LCP, known as SpeB-inducing peptide (SIP), is synthesized from a 24 base pair ultrasmall open reading frame (usORF) encoding a mature 8 amino acid peptide without the amino acid sequences required for secretion and processing. Consistent with the lack of hallmarks of bacterial peptide signals, the canonical machineries required for the export and import of qs peptides ...

[3] = tested on: RopB; settings: S. pyogenes; cited from earlier work
Description: as §1

[4] = tested on: bacterial virulence in animal models of infection; settings: cited from earlier work
Description: as §1

[5] = tested on: specific DNA/promoter sequences; settings: peer review response; ref "our detailed published findings"; cited from earlier work
Description: page 13: not provide the desired explanation for the differences in the binding sites of both receptors. Consequently, we provided analyses and explanation in the previous version that is supported by the data and meaningful. - Regarding this point, it has recently been published that RopB-GAS might act as a repressor and not as a transcriptional activator (DOI: 10.26508/lsa.202201809), as the authors show for RopBss. Could this fact explain the differences in their binding sites? Perhaps this point would be interesting to discuss in the manuscript. RESPONSE: We are aware of this study. Howeve ...

[6] = biological target: FITC-labeled synthetic LCPss (S. salivarius); experiment: fluorescence polarisation; purified RopBss titrated against FITC-labeled LCPss; 20 mM potassium phosphate pH 6.0, 75 mM NaCl, 2% DMSO, 1 mM EDTA, 0.0005% Tween 20

Compound: CC[C@H](C)[C@H](NC(=O)[C@H](CC(C)C)NC(=O)[C@H](Cc1c[nH]c2ccccc12)NC(=O)[C@H](CCSC)NC(=S)Nc1ccc2c(c1)C(=O)OC21c2ccc(O)cc2Oc2cc(O)ccc21)C(=O)N[C@@H](CC(C)C)C(=O)N[C@@H](CC(C)C)C(=O)N[C@@H](Cc1ccccc1)C(=O)N[C@@H](CC(C)C)C(=O)O [FITC-LCPss] ({FITC}-MWLILLFL-OH)
Internalization of exogenously added peptide (in words) [1]: internalization of the exogenously added FITC-labeled synthetic LCPss

Compound: MWLLLLFL [SIP, SpeB-inducing peptide of Streptococcus pyogenes, mature 8 amino acid peptide]
SpeB regulation (in words) [2]: upregulation of an adjacently located virulence factor, a secreted cysteine protease SpeB
Binding to RopB (in words) [3]: binds to a RRNPPA-family transcription activator, Regulator of Protease B (RopB)
Bacterial virulence (in words) [4]: increased bacterial virulence in animal models of infection
RopB binding to promoter sequences in the presence of SIP (in words) [5]: with high affinity only in the presence of SIP

Kd [6]: 8 nM
Compound: RopBss (RopB homolog, cytosolic LCP receptor of Streptococcus salivarius)
